Measured values taken from patent publication US20090252680A1, “NOVEL COMPOUND WITH AFFINITY FOR AMYLOID” (NIHON- MEDI-PHYSICS CO., LTD, priority 2006, published 2009).
Where two headings read alike, the source gives them in different places.

What was measured:
[1] = Measurement of transferability into brain and clearance; conditions: rats, intravenous injection (tail vein); for Radioactive accumulation per unit weight of brain, after 2 min.: 2 min after injection; for Radioactive accumulation per unit weight of brain, after 5 min.: 5 min after injection; for Radioactive accumulation per unit weight of brain, after 30 min.: 30 min after injection; for Radioactive accumulation per unit weight of brain, after 60 min.: 60 min after injection
Experimental: The rats were sacrificed by bleeding from abdominal artery, and brains were removed and subjected to measurement of mass of brains and further subjected to measurement of radioactivity (hereinafter referred to as A in this Example) with a single channel analyzer (detector type: SP-20 manufactured by OHYO KOKEN KOGYO Co., Ltd.) 2, 5, 30 and 60 minutes after the injection. Also, radioactivity (hereinafter referred to as B in this Example) of the remain of the whole body was measured in the same manner as above.
The same procedures as above were performed to calculate radioactive accumulation per unit weight of brain (% ID/g) at the respective time points (Comparative Example 2).
Three animals were used for Example 15, Example 16 and Reference Example 2 at the respective time points.

[2] = Measurement of partition coefficient based on the octanol extraction method; conditions: octanol / 10 mmol/L phosphate buffer (pH 7.4)
Experimental: To 2 mL of octanol, 10 μL each of the prepared sample solutions was respectively added, and 2 mL of a 10 mmol/L phosphate buffer (pH 7.4) was further added, followed by stirring for 30 seconds. After the mixture was centrifuged with a low-speed centrifuge (2000 rpm×60 min.), the octanol layer and the water layer were sampled each in an amount of 1 mL, and subjected to measurement of radioactivity count with an autowell gamma system (Type: ARC-301B, manufactured by Aloka). Using the obtained radioactivity count, logPoctanol was calculated in accordance with the equation (2).

intracerebral amyloid [3] = molecular target: T1, intracerebral amyloid (Homo sapiens, UniProt P05067); experiment: Confirmation of imaging of amyloid in brain (autoradiogram of brain slice, amyloid injected into amygdaloid nucleus); format: in vivo, male Wistar rat; conditions: 60 minutes after intravenous injection
T1 construct: Aβ1-42 (manufactured by Wako); purchased Wako
T1 sequence (P05067 672-713): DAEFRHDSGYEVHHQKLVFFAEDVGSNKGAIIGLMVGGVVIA
Experimental: (§1) (1) Aβ1-42 (manufactured by Wako) was dissolved in phosphate buffer (pH 7.4) and shaken at 37° C. for 72 hours, to obtain a 1 mg/mL suspension of aggregated Aβ (hereinafter referred to as amyloid suspension in this Example).
(§2) (2) 2.5 μL (corresponding to 25 μg) of the amyloid suspension was injected under thiopental anesthesia into an amygdaloid nucleus on one side of a male Wistar rat (7-week old). As a control, 2.5 μL of a phosphate buffered physiological saline solution (pH 7.4) was injected into an amygdaloid nucleus on the other side of the rat. The rats were examined 1 day after the injection of the amyloid suspension and the phosphate buffered physiological saline solution (pH 7.4).
(§3) This sample solution was injected under thiopental anesthesia into the rat through the tail vein (dosage: 0.5 mL, dosed radioactivity: 16 MBq equivalent).
(§4) (4) Brain was removed 60 minutes after the injection to prepare a brain slice of 10 μm in thickness with a microtome (type: CM3050S, manufactured by LEICA). The brain slice was exposed to an imaging plate for 20 hours, and then image analysis was carried out by use of a Bio-imaging Analyzer (type: BAS-2500; manufactured by FUJIFILM Corporation).
(§5) (5) After the completion of the image analysis using the Bio-imaging Analyzer, pathological staining with Thioflavin T was carried out to perform imaging by use of a fluorescence microscope (manufactured by NIKON Corporation; type: TE2000-U model; excitation wavelength: 400-440 nm; detection wavelength: 470 nm).

intracerebral amyloid [4] = experiment: as above; format: in vivo, male Wistar rat; conditions: 60 minutes after intravenous injection, control side
Experimental: as §1, §2, §3, §4, §5

[5] = [125I]-labeled, normal mice; cited from earlier work
amyloid = conditions: [125I]-labeled compounds; cited from earlier work
[6] = [11C]-labeled, rats; cited from earlier work
[7] = molecular target: amyloid (aggregated Aβ1-42) (Homo sapiens, UniProt P05067)
Sequence of amyloid (aggregated Aβ1-42) (P05067 672-713): as above
From the text: Affinity of the present compounds with amyloid was examined by the following in vitro binding tests.

Row | Structure (SMILES) | Radioactive accumulation per unit weight of brain, after 2 min. [1] [% ID/g] | Radioactive accumulation per unit weight of brain, after 5 min. [1] [% ID/g] | Radioactive accumulation per unit weight of brain, after 30 min. [1] [% ID/g] | Radioactive accumulation per unit weight of brain, after 60 min. [1] [% ID/g] | logPoctanol value [2] | Accumulation of radioactivity in the amygdaloid nucleus on the side injected with amyloid suspension (intracerebral amyloid [3]) | Accumulation of radioactivity in the amygdaloid nucleus on the side injected with physiological saline solution (intracerebral amyloid [4]) | Clearance from normal tissues [5] | Transfer into brain [5] | further results
1 | Fc1ccc(-c2cn3cc([123I])ccc3n2)cc1 | 1.00 | 0.72 | 0.12 | 0.05 | 2.3 | marked accumulation of radioactivity | no significant accumulation of radioactivity | – | – | –
2 | COc1ccc2nc(-c3ccc([123I])cc3)cn2c1 | 1.26 | 0.89 | 0.19 | 0.09 | 2.3 | marked accumulation of radioactivity | no significant accumulation of radioactivity | – | – | –
3 | COc1ccc(-c2cn3cc([123I])ccc3n2)cc1 | 1.04 | 0.72 | 0.12 | 0.04 | 1.7 | marked accumulation of radioactivity | no significant accumulation of radioactivity | – | – | –
4 | CN(C)c1ccc(-c2nc3ccc(I)cc3o2)cc1 [IBOX, 6-iodo-2-[4′-(N,N-dimethylamino)phenyl]benzoxazole] | – | – | – | – | – | – | – | insufficient in clearance from normal tissues | transferred into brain 2 minutes after administration | –
5 | CN(C)c1ccc(-c2cn3cc(I)ccc3n2)cc1 [IMPY, 6-iodo-2-[4′-(N,N-dimethylamino)phenyl]imidazo[1,2-a]pyridine] | – | – | – | – | – | – | – | – | – | Clearance from normal tissues (amyloid): rapid clearance from normal tissues; Transfer to brain and accumulation at amyloid (amyloid): transferring to brain and accumulating at amyloid after administration
6 | CNc1ccc(/C=C/c2ccc(O)cc2)cc1 [SB-13, (E)-4-methylamino-4′-hydroxystilbene] | – | – | – | – | – | – | – | – | – | Clearance from normal tissues [6]: it cannot be said that the clearance is sufficiently fast
7 | CN(C)c1ccc(-c2nc3ccc(I)cc3s2)cc1 [TZDM, 6-iodo-2-[4′-(N,N-dimethylamino)phenyl]benzothiazole] | – | – | – | – | – | – | – | insufficient in clearance from normal tissues | transferred into brain 2 minutes after administration | –
8 | CN(C)c1ccc(-c2cn3cc([123I])ccc3n2)cc1 [[^123I]-IMPY, reference compound] | 1.19 | 0.97 | 0.23 | 0.09 | 1.9 | – | – | – | – | –
9 | COc1ccc2nc(-c3ccc([125I])cc3)cn2c1 [[^125I]-2-(4′-iodophenyl)-6-methoxyimidazo[1,2-a]pyridine] | – | – | – | – | – | – | – | – | – | Binding to amyloid [7]: capable of binding to amyloid; Radioactive count (A−B) specifically binding to amyloid versus amyloid concentration ([7]; amyloid 25, 62.5, 250, 625 and 1000 nmol/L, 22° C., 3 hours): showed a tendency to increase with increment of the concentration of amyloid
10 | CN(C)c1ccc(/C=C/c2ccc(I)cc2)cc1 [m-I-SB, (E)-4-dimethylamino-4′-iodostilbene] | – | – | – | – | – | – | – | insufficient in clearance from normal tissues | transferred into brain 2 minutes after administration | –
